Experimental data from ChEMBL document CHEMBL5728071, “Optically active azabicyclo ring derivative” (2020).

Target: T1, Menin (Homo sapiens, UniProt O00255)
T1 sequence (O00255 whole entry): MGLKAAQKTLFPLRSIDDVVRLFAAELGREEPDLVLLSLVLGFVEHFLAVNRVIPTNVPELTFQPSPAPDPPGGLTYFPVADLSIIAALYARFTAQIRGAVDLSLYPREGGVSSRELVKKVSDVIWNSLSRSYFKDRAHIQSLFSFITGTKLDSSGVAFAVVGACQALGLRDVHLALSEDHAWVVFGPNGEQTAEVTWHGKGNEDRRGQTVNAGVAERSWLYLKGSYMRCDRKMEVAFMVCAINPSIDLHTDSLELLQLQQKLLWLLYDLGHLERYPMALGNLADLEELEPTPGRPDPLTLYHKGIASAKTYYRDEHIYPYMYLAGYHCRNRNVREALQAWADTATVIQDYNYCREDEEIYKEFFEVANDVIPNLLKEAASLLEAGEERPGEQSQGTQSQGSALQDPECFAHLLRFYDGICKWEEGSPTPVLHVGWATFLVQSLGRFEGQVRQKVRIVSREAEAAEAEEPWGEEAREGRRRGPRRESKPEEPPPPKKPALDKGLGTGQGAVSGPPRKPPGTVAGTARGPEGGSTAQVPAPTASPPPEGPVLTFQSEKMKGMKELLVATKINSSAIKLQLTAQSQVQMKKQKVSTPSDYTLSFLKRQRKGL
Assay: After the incubation, the signal was detected with RUBYstar (BMG LABTECH).

Structure (SMILES)	IC50 [nM]
C=C1C[C@H]2CC[C@@H]1N[C@@H]2C(=O)N1CCC2(CC1)CN(c1ncncc1Oc1ccc(F)cc1C(=O)N(C(C)C)C(C)C)C2	7.9
C=C1C[C@H]2CC[C@@H]1N[C@@H]2C(=O)N1CC2(C1)CN(c1ncncc1Oc1ccc(F)cc1C(=O)N(C(C)C)C(C)C)C2	6.2
